In brackets after ≈: the same amount, converted by molar mass. Where two headings read alike, the source gives them in different places.
Experiments:
[1] = test system: colo320 (colorectal cancer tissue); test: cells; type: cell-based; details: CCK8, 48 h; Table 6
Procedure: (§1) Different types of cells were cultured with complete media (RPMI1640 (DMEM high sugar medium)+10% fetal bovine serum+1×P/S+sodium pyruvate 1 mM solution) in an incubator at 37° C. and 5% CO2 until the cells grew to a sufficient number, and the cells were collected, centrifuged at 1,000 g for 5 min, resuspended with an appropriate volume of a 10% RMPI1640 (DMEM high sugar medium) medium and adjusted to an appropriate density. In a 96-well culture plate, 100 μL of cell culture fluid containing different concentrations of drugs was added, control wells (0.1% DMSO) with only corresponding drug solvents without drugs, as well as blank wells (Blank) with only the medium but without cells were set, and three parallel wells were set in each group. After that, the cells after cell counting were inoculated onto 96-well culture plates, with 100 μL of cell suspension per well, and an inoculation concentration of the cells was 5,000 cells (100 μL)/well. The plates were then cultured in a CO2 (5%) incubator at 37° C. for 48 h. After 48 h, 10 μL of a cell proliferation staining reagent (CCK8) was added to each well, the plates were incubated in a cell incubator for around 2 h, and an absorbance at 450 nm was detected.
(§2) Cell survival rates and median inhibitory concentrations (IC50) of the drugs on the cells were calculated.

[2] = test system: sarcoma SJSA-1 tumor model; details: 5 mg/kg once a week for three weeks
Procedure: Test objective: To investigate the antitumor efficacy of the above compounds in an animal tumor model of sarcoma SJSA-1.
(§3) Test drug: Polypeptide conjugate, Irinotecan, Belotecan and normal saline control group.
(§4) Test animals: 6-8 weeks old BALB/c mice, all female.
(§5) SJSA-1 cells were purchased from ATCC and cultured in a DMEM medium containing 10% fetal bovine serum at 37° C. in 5% CO2. Passaging was performed every three days, and cells within 15 generations were used. 2×10^7 corresponding cells were injected into right chests of nude mice subcutaneously. After a volume of the tumors reached at least 100 mm^3, the mice were grouped randomly, with three mice in each group. Then treatment was started, and the day when the treatment was started was the first day. […] The control group was administered with normal saline. Administration was performed once a week for three weeks.
as §5

[3] = MTD determination in mice (Examples 27, 36, 44); type: in vivo; details: mice, monitored for 14 d
From the text: Test animals: 6-8 weeks old mice, all female; mice were grouped randomly, with six mice in each group, administered with drugs at different concentration gradients separately and monitored for 14 d. A mouse was euthanized at a loss of 20% of its initial weight and deemed to have died of poisoning.

[4] = test system: SKBR3 (breast cancer tissue); test: cells; type: cell-based; details: CCK8, 48 h; for IC50 SKBR3 (breast cancer tissue): Table 1; for IC50 Breast cancer tissue (SKBR3): Table 6
Procedure: as §1, with “serum+1XP/S+sodium” for “serum+1×P/S+sodium”, “counted.” for “adjusted to an appropriate density.”
(§6) Cell survival rates and median inhibitory concentrations of the drugs on the cells were calculated.
as §1, §2

[5] = test system: A549 (non-small cell lung cancer); test: cells; type: cell-based; details: CCK8, 48 h; for IC50 A549 (non-small cell lung cancer): Table 1; for IC50 Non-small cell lung cancer tissue (A549): Table 6
Procedure: as §1, with “serum+1XP/S+sodium” for “serum+1×P/S+sodium”, “counted.” for “adjusted to an appropriate density.”
as §6, §1, §2

SJSA-1 (sarcoma tissue) = test: cells; type: cell-based; details: CCK8, 48 h; for IC50 SJSA-1 (sarcoma tissue): Table 1; for IC50 Sarcoma tissue (SJSA-1): Table 6
Procedure: as §1, with “serum+1XP/S+sodium” for “serum+1×P/S+sodium”, “counted.” for “adjusted to an appropriate density.”
as §6, §1, §2

A2780 (ovarian cancer) = test: cells; type: cell-based; details: CCK8, 48 h; for IC50 A2780 (ovarian cancer): Table 1; for IC50 Ovarian cancer tissue (A2780): Table 6
Procedure: as §1, with “serum+1XP/S+sodium” for “serum+1×P/S+sodium”, “counted.” for “adjusted to an appropriate density.”
as §6, §1, §2

[6] = test system: colo320 colorectal cancer tumor model; details: 5 mg/kg once a week for four weeks
Procedure: Test objective: To investigate the antitumor efficacy of the above compounds in an animal tumor model of colo320 colorectal cancer.
as §3, §4
as §5, with “Passaging” for “SJSA-1 cells were purchased from ATCC and cultured in a DMEM medium containing 10% fetal bovine serum at 37° C. in 5% CO2. Passaging”, “used. 7.5×10^6” for “used. 2×10^7”, “least 120” for “least 100”, “for four” for “for three”

CC[C@@]1(O)C(=O)OCc2c1cc1n(c2=O)Cc2c-1nc1ccccc1c2CCNC1CCC1 [D7]
IC50 Colorectal cancer tissue (colo320) [1]: 0.017 µg/mL (≈ 0.0382 µM) | Mouse weight (%) ([2]; Table 2): −7% | SJSA-1 (sarcoma tissue) mean tumor volume (mm^3) ([2]; Table 2): 1369.5 mm^3 | SJSA-1 (sarcoma) Growth rate (%) ([2]; Table 2): 1185.01% | Mouse weight (%) ([2]; Table 7): −7% | SJSA-1 (sarcoma tissue) growth rate (%) ([2]; Table 7): 1185.01% | SJSA-1 (sarcoma tissue) mean tumor volume (mm^3) ([2]; Table 7): 1369.5 mm^3 | MTD ([3]; Table 4): 15 mg/kg | MTD ([3]; Table 9): 15 mg/kg | IC50 SKBR3 (breast cancer tissue) [4]: 0.016 µg/mL (≈ 0.0359 µM) | IC50 Breast cancer tissue (SKBR3) [4]: 0.016 µg/mL (≈ 0.0359 µM) | IC50 A549 (non-small cell lung cancer) [5]: 0.0074 µg/mL (≈ 0.0166 µM) | IC50 Non-small cell lung cancer tissue (A549) [5]: 0.0074 µg/mL (≈ 0.0166 µM) | IC50 SJSA-1 (sarcoma tissue) (SJSA-1 (sarcoma tissue)): 0.0084 µg/mL (≈ 0.0189 µM) | IC50 Sarcoma tissue (SJSA-1) (SJSA-1 (sarcoma tissue)): 0.0084 µg/mL (≈ 0.0189 µM) | IC50 A2780 (ovarian cancer) (A2780 (ovarian cancer)): 0.0043 µg/mL (≈ 0.00965 µM) | IC50 Ovarian cancer tissue (A2780) (A2780 (ovarian cancer)): 0.0043 µg/mL (≈ 0.00965 µM) | Mouse weight (%) ([6]; Table 3): −8% | colo320 (colorectal cancer cell) growth rate (%) ([6]; Table 3): 1136.64% | colo320 (colorectal cancer cell) mean tumor volume (mm^3) ([6]; Table 3): 1258.9 mm^3 | Mouse weight (%) ([6]; Table 8): −8% | colo320 (colorectal cancer cell) growth rate (%) ([6]; Table 8): 1136.64% | colo320 (colorectal cancer cell) mean tumor volume (mm^3) ([6]; Table 8): 1258.9 mm^3

CC[C@@]1(O)C(=O)OCc2c1cc1n(c2=O)Cc2c-1nc1ccccc1c2CCNCC(C)C [D5]
IC50 Colorectal cancer tissue (colo320) [1]: 0.029 µg/mL (≈ 0.0648 µM) | Mouse weight (%) ([2]; Table 2): −5% | SJSA-1 (sarcoma tissue) mean tumor volume (mm^3) ([2]; Table 2): 1443.2 mm^3 | SJSA-1 (sarcoma) Growth rate (%) ([2]; Table 2): 1248.78% | Mouse weight (%) ([2]; Table 7): −5% | SJSA-1 (sarcoma tissue) growth rate (%) ([2]; Table 7): 1248.78% | SJSA-1 (sarcoma tissue) mean tumor volume (mm^3) ([2]; Table 7): 1443.2 mm^3 | MTD ([3]; Table 4): 30 mg/kg | MTD ([3]; Table 9): 30 mg/kg | IC50 SKBR3 (breast cancer tissue) [4]: 0.013 µg/mL (≈ 0.029 µM) | IC50 Breast cancer tissue (SKBR3) [4]: 0.013 µg/mL (≈ 0.029 µM) | IC50 A549 (non-small cell lung cancer) [5]: 0.019 µg/mL (≈ 0.0425 µM) | IC50 Non-small cell lung cancer tissue (A549) [5]: 0.019 µg/mL (≈ 0.0425 µM) | IC50 SJSA-1 (sarcoma tissue) (SJSA-1 (sarcoma tissue)): 0.012 µg/mL (≈ 0.0268 µM) | IC50 Sarcoma tissue (SJSA-1) (SJSA-1 (sarcoma tissue)): 0.012 µg/mL (≈ 0.0268 µM) | IC50 A2780 (ovarian cancer) (A2780 (ovarian cancer)): 0.014 µg/mL (≈ 0.0313 µM) | IC50 Ovarian cancer tissue (A2780) (A2780 (ovarian cancer)): 0.014 µg/mL (≈ 0.0313 µM) | Mouse weight (%) ([6]; Table 3): +8% | colo320 (colorectal cancer cell) growth rate (%) ([6]; Table 3): 991.91% | colo320 (colorectal cancer cell) mean tumor volume (mm^3) ([6]; Table 3): 1098.6 mm^3 | Mouse weight (%) ([6]; Table 8): +8% | colo320 (colorectal cancer cell) growth rate (%) ([6]; Table 8): 991.91% | colo320 (colorectal cancer cell) mean tumor volume (mm^3) ([6]; Table 8): 1098.6 mm^3

From patent US20250235545A1, “POLYPEPTIDE CONJUGATE AND USE THEREOF” (SHANGHAI CHIXI BIOMEDICAL TECHNOLOGY CO., LTD, priority 2024, published 2025)
